Patent publication US7118895B2, “Process for producing aglycon by using diglycosidase and flavor-improved food containing the aglycon and converting agent to be used in the process” (Amano Enzyme Inc., priority 2000, dated 2006)

Test system: Crude diglycosidase
Assay: Examination of pH in the conversion into isoflavone aglycons by diglycosidase using soybean materials
Assay type: biochemical, Penicillium multicolor IAM7153
Design: Decomposition efficiency of genistin family in soymilk / Decomposition efficiency of genistin family in defatted soybean / Decomposition efficiency of daidzin family in defatted soybean: concentration or dose not given beside the values
Conditions: for Decomposition efficiency of daidzin family in roasted soy flour: 55° C.
In short: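 HPLC readout: isoflavone glycosides vs aglycons. Substrates: 50 mg soy material (roasted flour, soymilk, defatted bean, concentrated protein), pH 2–11 (HCl/NaOH). Crude diglycosidase solution 1.88 AU/mL, matched pH; 55° C; quenched with ethanol at 0/1/3/6 h; centrifuged 15,000 rpm, 4° C, 10 min.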

[1] = pH4.8, heat treatment of enzyme: no, reaction time 0 h
[2] = pH4.8, heat treatment of enzyme: no, reaction time 1 h
[3] = pH4.8, heat treatment of enzyme: no, reaction time 3 h
[4] = pH4.8, heat treatment of enzyme: no, reaction time 6 h
[5] = pH4.8, heat treatment of enzyme: yes, reaction time 6 h
[6] = pH6.6, heat treatment of enzyme: no, reaction time 0 h
[7] = pH6.6, heat treatment of enzyme: no, reaction time 1 h
[8] = pH6.6, heat treatment of enzyme: no, reaction time 3 h
[9] = pH6.6, heat treatment of enzyme: no, reaction time 6 h
[10] = pH6.6, heat treatment of enzyme: yes, reaction time 6 h

O=c1c(-c2ccc(O)cc2)coc2cc(O)ccc12 [daidzein]
Decomposition efficiency of daidzin family in concentrated soybean protein (pH1.6, heat treatment of enzyme: no, reaction time 0 h): 3.0% | Decomposition efficiency of daidzin family in concentrated soybean protein (pH1.6, heat treatment of enzyme: no, reaction time 1 h): 3.3% | Decomposition efficiency of daidzin family in concentrated soybean protein (pH1.6, heat treatment of enzyme: no, reaction time 3 h): 3.3% | Decomposition efficiency of daidzin family in concentrated soybean protein (pH1.6, heat treatment of enzyme: no, reaction time 6 h): 3.4% | Decomposition efficiency of daidzin family in concentrated soybean protein (pH1.6, heat treatment of enzyme: yes, reaction time 6 h): 2.9% | Decomposition efficiency of daidzin family in roasted soy flour (pH2, heat treatment of enzyme no, reaction time 0 h): 3.5 | Decomposition efficiency of daidzin family in roasted soy flour (pH2, heat treatment of enzyme no, reaction time 1 h): 5.4 | Decomposition efficiency of daidzin family in roasted soy flour (pH2, heat treatment of enzyme no, reaction time 3 h): 4.8 | Decomposition efficiency of daidzin family in roasted soy flour (pH2, heat treatment of enzyme no, reaction time 6 h): 4.5 | Decomposition efficiency of daidzin family in roasted soy flour (pH2, heat treatment of enzyme yes, reaction time 6 h): 3.8 | Decomposition efficiency of daidzin family in soymilk (pH2.3, heat treatment of enzyme: no, reaction time 0 h): 10.5% | Decomposition efficiency of daidzin family in soymilk (pH2.3, heat treatment of enzyme: no, reaction time 1 h): 45.3% | Decomposition efficiency of daidzin family in soymilk (pH2.3, heat treatment of enzyme: no, reaction time 3 h): 48.9% | Decomposition efficiency of daidzin family in soymilk (pH2.3, heat treatment of enzyme: no, reaction time 6 h): 51.5% | Decomposition efficiency of daidzin family in soymilk (pH2.3, heat treatment of enzyme: yes, reaction time 6 h): 10.2% | Decomposition efficiency of daidzin family in defatted soybean (pH2.6, heat treatment of enzyme: no, reaction time 0 h): 13.2% | Decomposition efficiency of daidzin family in defatted soybean (pH2.6, heat treatment of enzyme: no, reaction time 1 h): 21.3% | Decomposition efficiency of daidzin family in defatted soybean (pH2.6, heat treatment of enzyme: no, reaction time 3 h): 40.9% | Decomposition efficiency of daidzin family in defatted soybean (pH2.6, heat treatment of enzyme: no, reaction time 6 h): 42.9% | Decomposition efficiency of daidzin family in defatted soybean (pH2.6, heat treatment of enzyme: yes, reaction time 6 h): 13.0% | Decomposition efficiency of daidzin family in concentrated soybean protein (pH2.7, heat treatment of enzyme: no, reaction time 0 h): 3.0% | Decomposition efficiency of daidzin family in concentrated soybean protein (pH2.7, heat treatment of enzyme: no, reaction time 1 h): 40.7% | Decomposition efficiency of daidzin family in concentrated soybean protein (pH2.7, heat treatment of enzyme: no, reaction time 3 h): 41.6% | Decomposition efficiency of daidzin family in concentrated soybean protein (pH2.7, heat treatment of enzyme: no, reaction time 6 h): 45.0% | Decomposition efficiency of daidzin family in concentrated soybean protein (pH2.7, heat treatment of enzyme: yes, reaction time 6 h): 3.2% | Decomposition efficiency of daidzin family in roasted soy flour (pH3, heat treatment of enzyme no, reaction time 0 h): 3.5 | Decomposition efficiency of daidzin family in roasted soy flour (pH3, heat treatment of enzyme no, reaction time 1 h): 54.0 | Decomposition efficiency of daidzin family in roasted soy flour (pH3, heat treatment of enzyme no, reaction time 3 h): 60.4 | Decomposition efficiency of daidzin family in roasted soy flour (pH3, heat treatment of enzyme no, reaction time 6 h): 59.3 | Decomposition efficiency of daidzin family in roasted soy flour (pH3, heat treatment of enzyme yes, reaction time 6 h): 3.7 | Decomposition efficiency of daidzin family in defatted soybean (pH3.4, heat treatment of enzyme: no, reaction time 0 h): 13.2% | Decomposition efficiency of daidzin family in defatted soybean (pH3.4, heat treatment of enzyme: no, reaction time 1 h): 60.6% | Decomposition efficiency of daidzin family in defatted soybean (pH3.4, heat treatment of enzyme: no, reaction time 3 h): 65.5% | Decomposition efficiency of daidzin family in defatted soybean (pH3.4, heat treatment of enzyme: no, reaction time 6 h): 71.0% | Decomposition efficiency of daidzin family in defatted soybean (pH3.4, heat treatment of enzyme: yes, reaction time 6 h): 15.1% | Decomposition efficiency of daidzin family in soymilk (pH3.5, heat treatment of enzyme: no, reaction time 0 h): 10.5% | Decomposition efficiency of daidzin family in soymilk (pH3.5, heat treatment of enzyme: no, reaction time 1 h): 64.4% | Decomposition efficiency of daidzin family in soymilk (pH3.5, heat treatment of enzyme: no, reaction time 3 h): 84.9% | Decomposition efficiency of daidzin family in soymilk (pH3.5, heat treatment of enzyme: no, reaction time 6 h): 92.6% | Decomposition efficiency of daidzin family in soymilk (pH3.5, heat treatment of enzyme: yes, reaction time 6 h): 10.6% | Decomposition efficiency of daidzin family in concentrated soybean protein (pH3.7, heat treatment of enzyme: no, reaction time 0 h): 3.0% | Decomposition efficiency of daidzin family in concentrated soybean protein (pH3.7, heat treatment of enzyme: no, reaction time 1 h): 58.4% | Decomposition efficiency of daidzin family in concentrated soybean protein (pH3.7, heat treatment of enzyme: no, reaction time 3 h): 67.0% | Decomposition efficiency of daidzin family in concentrated soybean protein (pH3.7, heat treatment of enzyme: no, reaction time 6 h): 74.8% | Decomposition efficiency of daidzin family in concentrated soybean protein (pH3.7, heat treatment of enzyme: yes, reaction time 6 h): 3.1% | Decomposition efficiency of daidzin family in roasted soy flour (pH4, heat treatment of enzyme no, reaction time 0 h): 3.5 | Decomposition efficiency of daidzin family in roasted soy flour (pH4, heat treatment of enzyme no, reaction time 1 h): 65.6 | Decomposition efficiency of daidzin family in roasted soy flour (pH4, heat treatment of enzyme no, reaction time 3 h): 79.5 | Decomposition efficiency of daidzin family in roasted soy flour (pH4, heat treatment of enzyme no, reaction time 6 h): 88.9 | Decomposition efficiency of daidzin family in roasted soy flour (pH4, heat treatment of enzyme yes, reaction time 6 h): 3.5 | Decomposition efficiency of daidzin family in defatted soybean [1]: 15.7% | Decomposition efficiency of daidzin family in soymilk [1]: 9.0% | Decomposition efficiency of daidzin family in defatted soybean [2]: 59.5% | Decomposition efficiency of daidzin family in soymilk [2]: 52.6% | Decomposition efficiency of daidzin family in defatted soybean [3]: 63.3% | Decomposition efficiency of daidzin family in soymilk [3]: 66.1% | Decomposition efficiency of daidzin family in defatted soybean [4]: 69.5% | Decomposition efficiency of daidzin family in soymilk [4]: 79.7% | Decomposition efficiency of daidzin family in defatted soybean [5]: 24.5% | Decomposition efficiency of daidzin family in soymilk [5]: 9.1% | Decomposition efficiency of daidzin family in roasted soy flour (pH5, heat treatment of enzyme no, reaction time 0 h): 3.5 | Decomposition efficiency of daidzin family in roasted soy flour (pH5, heat treatment of enzyme no, reaction time 1 h): 61.5 | Decomposition efficiency of daidzin family in roasted soy flour (pH5, heat treatment of enzyme no, reaction time 3 h): 75.3 | Decomposition efficiency of daidzin family in roasted soy flour (pH5, heat treatment of enzyme no, reaction time 6 h): 84.8 | Decomposition efficiency of daidzin family in roasted soy flour (pH5, heat treatment of enzyme yes, reaction time 6 h): 4.4 | Decomposition efficiency of daidzin family in concentrated soybean protein (pH5.1, heat treatment of enzyme: no, reaction time 0 h): 3.0% | Decomposition efficiency of daidzin family in concentrated soybean protein (pH5.1, heat treatment of enzyme: no, reaction time 1 h): 56.6% | Decomposition efficiency of daidzin family in concentrated soybean protein (pH5.1, heat treatment of enzyme: no, reaction time 3 h): 63.0% | Decomposition efficiency of daidzin family in concentrated soybean protein (pH5.1, heat treatment of enzyme: no, reaction time 6 h): 68.8% | Decomposition efficiency of daidzin family in concentrated soybean protein (pH5.1, heat treatment of enzyme: yes, reaction time 6 h): 3.2% | Decomposition efficiency of daidzin family in defatted soybean (pH5.4, heat treatment of enzyme: no, reaction time 0 h): 15.7% | Decomposition efficiency of daidzin family in defatted soybean (pH5.4, heat treatment of enzyme: no, reaction time 1 h): 55.8% | Decomposition efficiency of daidzin family in defatted soybean (pH5.4, heat treatment of enzyme: no, reaction time 3 h): 58.5% | Decomposition efficiency of daidzin family in defatted soybean (pH5.4, heat treatment of enzyme: no, reaction time 6 h): 63.1% | Decomposition efficiency of daidzin family in defatted soybean (pH5.4, heat treatment of enzyme: yes, reaction time 6 h): 55.1% | Decomposition efficiency of daidzin family in soymilk (pH6.2, heat treatment of enzyme: no, reaction time 0 h): 9.0% | Decomposition efficiency of daidzin family in soymilk (pH6.2, heat treatment of enzyme: no, reaction time 1 h): 45.9% | Decomposition efficiency of daidzin family in soymilk (pH6.2, heat treatment of enzyme: no, reaction time 3 h): 53.6% | Decomposition efficiency of daidzin family in soymilk (pH6.2, heat treatment of enzyme: no, reaction time 6 h): 58.1% | Decomposition efficiency of daidzin family in soymilk (pH6.2, heat treatment of enzyme: yes, reaction time 6 h): 9.7% | Decomposition efficiency of daidzin family in roasted soy flour (pH6.5, heat treatment of enzyme no, reaction time 0 h): 3.4 | Decomposition efficiency of daidzin family in roasted soy flour (pH6.5, heat treatment of enzyme no, reaction time 1 h): 54.6 | Decomposition efficiency of daidzin family in roasted soy flour (pH6.5, heat treatment of enzyme no, reaction time 3 h): 60.8 | Decomposition efficiency of daidzin family in roasted soy flour (pH6.5, heat treatment of enzyme no, reaction time 6 h): 65.6 | Decomposition efficiency of daidzin family in roasted soy flour (pH6.5, heat treatment of enzyme yes, reaction time 6 h): 4.7 | Decomposition efficiency of daidzin family in concentrated soybean protein [6]: 3.0% | Decomposition efficiency of daidzin family in defatted soybean [6]: 13.2% | Decomposition efficiency of daidzin family in concentrated soybean protein [7]: 51.0% | Decomposition efficiency of daidzin family in defatted soybean [7]: 54.1% | Decomposition efficiency of daidzin family in concentrated soybean protein [8]: 57.1% | Decomposition efficiency of daidzin family in defatted soybean [8]: 56.0% | Decomposition efficiency of daidzin family in concentrated soybean protein [9]: 58.8% | Decomposition efficiency of daidzin family in defatted soybean [9]: 58.2% | Decomposition efficiency of daidzin family in concentrated soybean protein [10]: 3.2% | Decomposition efficiency of daidzin family in defatted soybean [10]: 49.5% | Decomposition efficiency of daidzin family in soymilk (pH7.2, heat treatment of enzyme: no, reaction time 0 h): 9.0% | Decomposition efficiency of daidzin family in soymilk (pH7.2, heat treatment of enzyme: no, reaction time 1 h): 43.6% | Decomposition efficiency of daidzin family in soymilk (pH7.2, heat treatment of enzyme: no, reaction time 3 h): 47.6% | Decomposition efficiency of daidzin family in soymilk (pH7.2, heat treatment of enzyme: no, reaction time 6 h): 51.8% | Decomposition efficiency of daidzin family in soymilk (pH7.2, heat treatment of enzyme: yes, reaction time 6 h): 10.2% | Decomposition efficiency of daidzin family in defatted soybean (pH7.8, heat treatment of enzyme: no, reaction time 0 h): 13.3% | Decomposition efficiency of daidzin family in defatted soybean (pH7.8, heat treatment of enzyme: no, reaction time 1 h): 43.1% | Decomposition efficiency of daidzin family in defatted soybean (pH7.8, heat treatment of enzyme: no, reaction time 3 h): 48.4% | Decomposition efficiency of daidzin family in defatted soybean (pH7.8, heat treatment of enzyme: no, reaction time 6 h): 51.9% | Decomposition efficiency of daidzin family in defatted soybean (pH7.8, heat treatment of enzyme: yes, reaction time 6 h): 21.7% | Decomposition efficiency of daidzin family in roasted soy flour (pH8.5, heat treatment of enzyme no, reaction time 0 h): 3.8 | Decomposition efficiency of daidzin family in roasted soy flour (pH8.5, heat treatment of enzyme no, reaction time 1 h): 36.9 | Decomposition efficiency of daidzin family in roasted soy flour (pH8.5, heat treatment of enzyme no, reaction time 3 h): 46.4 | Decomposition efficiency of daidzin family in roasted soy flour (pH8.5, heat treatment of enzyme no, reaction time 6 h): 51.8 | Decomposition efficiency of daidzin family in roasted soy flour (pH8.5, heat treatment of enzyme yes, reaction time 6 h): 3.9 | Decomposition efficiency of daidzin family in concentrated soybean protein (pH8.6, heat treatment of enzyme: no, reaction time 0 h): 3.2% | Decomposition efficiency of daidzin family in concentrated soybean protein (pH8.6, heat treatment of enzyme: no, reaction time 1 h): 9.9% | Decomposition efficiency of daidzin family in concentrated soybean protein (pH8.6, heat treatment of enzyme: no, reaction time 3 h): 15.9% | Decomposition efficiency of daidzin family in concentrated soybean protein (pH8.6, heat treatment of enzyme: no, reaction time 6 h): 27.4% | Decomposition efficiency of daidzin family in concentrated soybean protein (pH8.6, heat treatment of enzyme: yes, reaction time 6 h): 3.2% | Decomposition efficiency of daidzin family in soymilk (pH11.6, heat treatment of enzyme: no, reaction time 0 h): 8.7% | Decomposition efficiency of daidzin family in soymilk (pH11.6, heat treatment of enzyme: no, reaction time 1 h): 43.6% | Decomposition efficiency of daidzin family in soymilk (pH11.6, heat treatment of enzyme: no, reaction time 3 h): 49.6% | Decomposition efficiency of daidzin family in soymilk (pH11.6, heat treatment of enzyme: no, reaction time 6 h): 52.3% | Decomposition efficiency of daidzin family in soymilk (pH11.6, heat treatment of enzyme: yes, reaction time 6 h): 9.3%
